Measured values published in paper PMC4411102 (PLoS ONE, 2015).

Columns and labels:
HIV-1 IIIB [1] = assay: Anti-HIV activity, p24 antigen assay in H9 cells; format: cell-based; set-up: key to Anti-HIV activity: +: moderate; ++: significant; NA: No activity; settings: for Anti-HIV activity (in words): 0.1 MoI HIV-1 IIIB pre-incubated with peptide, H9 cells, p24 on day 4
Method: Supplementary file pone.0124839.s002.tif: S2 Fig Anti-HIV activity of 3 designed peptides. Anti HIV activity of three peptides was determined using H9 cells. H9 cells were infected for 4 hrs with 0.1 MoI of HIV-1 IIIB pre-incubated with various concentrations of peptides. Peptides were added post infection as well. Supernatant was collected on day 4 post infection, and p24 antigen assay was performed. […] (TIF) Click here for additional data file.
Supplementary file pone.0124839.s003.tif: S3 Fig Anti-HIV activity of peptide analogues of peptide 1. After modifying the peptide 1, we performed anti-HIV assay as earlier. HIV-1 IIIB was pre-incubated with peptide analogues for 1 hr and then added to H9 cells for 4 hrs. Levels of p24 levels were determined on day 4 post infection. […] (TIF) Click here for additional data file.

gp120 of HIV-1 IIIB = assay: Binding ELISA, gp120 of HIV-1 IIIB; settings: ELISA
Method: (§1) After blocking with 3% bovine serum albumin (BSA) in PBS for 30 min, 100 μl of gp120 (100ng/well) in PBS-0.05% BSA was added to each well and incubated for 2 hrs at 37°C. After three washings with PBS-Tween-20 (PBS-T), cells were incubated with anti-gp120 antibody at 1:200 dilution and then with horse radish peroxidase-(HRP) conjugated secondary goat anti-human antibody (1:10000 dilution) for 1 hr at 37°C. This was followed by incubation with O-phenylenediamine for 20 min. The absorbance was measured at 492 nm on a microplate ELISA reader (ELx-800, Bio-Tek Instruments, USA). Background values obtained in the wells without HbAHP-25 were subtracted from the absorbance values from wells having all other reagents.
Supplementary file pone.0124839.s001.tif: S1 Fig Binding of designed peptides to gp120. Peptides that were designed in silico were evaluated for their binding to gp120 of HIV-1 IIIB. Peptides were coated on 96 well microtiter plate for 16 hrs and then incubated with 500ng of gp120 for 2 hrs at 37°C. This was followed by addition of anti-gp120 antibody, and absorbance was read at 492nm. Background absorbance was subtracted from the wells where peptides were not coated. […] (TIF) Click here for additional data file.

gp120 of HIV-1 BaL = assay: Binding ELISA, gp120 of HIV-1 BaL
Method: as §1

gp120 = gp120 (Human immunodeficiency virus type 1 group M subtype B, UniProt P04578); assay: Surface plasmon resonance; format: binding, HIV-1
Method: Briefly, gp120 (20 μg/ml) was immobilized onto carboxymethylated dextran (CM5) surface based sensor chip by amine coupling method according to the manufacturer’s instructions. […] 10mM NaOH and 0.5% SDS were used to regenerate the sensor chip surface after each experimental cycle. The binding response in resonance units (RU) was recorded as a function of time. Non-specific binding was subtracted from the control flow cells without gp120. Binding kinetics was determined with BIA evaluation 4.1 software (BIAcore) using 1:1 Langmuir binding model.

[2] = test system: HL2/3 cells expressing gp120; assay: Flow cytometry, HL2/3 cells expressing gp120; format: binding; settings: 35.7μM HbAHP-25, 1 hr at RT
Method: (§2) Cells were washed with same buffer twice and binding was evaluated using flow cytometer (BD Accuri C6, USA). The data was acquired and analyzed on BD Accuri software.

TZM-bl cells = assay: Flow cytometry, TZM-bl cells (no gp120); format: binding; settings: 35.7μM HbAHP-25, 1 hr at RT
Method: as §2

HeLa cells = assay: Flow cytometry, HeLa cells (no gp120); format: binding; settings: 35.7μM HbAHP-25, 1 hr at RT
Method: as §2

CD4 binding to gp120 = assay: Competitive ELISA, CD4 binding to gp120; set-up: species or system HIV-1; settings: gp120 pre-incubated with HbAHP-25 30 min, then CD4 1 hr
Method: 96 well microtiter plate was coated with soluble gp120 (1μg/well) from HIV-1 BaL and HIV-1 IIIB strains for 16 hrs at 4°C. […] Anti-CD4 monoclonal antibody (1:200) was added to the wells, followed by HRP-labeled goat anti-human secondary antibody (1:10000). Rest of the protocol followed was same as described above.

[3] = test system: PBMCs, VK2/E6E7, TZM-bl, and CEM-GFP cells; assay: MTT cytotoxicity assay; format: cell-based, human
Method: Briefly, PBMCs, VK2/E6E7, TZM-bl, and CEM-GFP cells (5x10^4 for 24 hr assay and 2x10^4 cells for 120 hr assay) were seeded in a 96-well microtiter plate 24 hrs prior to the treatment with peptides. Cells were treated with different concentrations of peptides (4.4–1142.4μM). MTT (10 μl of 1mg/ml) was added to each well, followed by addition of 100 μl of DMSO (Sigma-Aldrich) after 3 hrs. The absorbance was measured at 540nm using ELISA reader (ELX-800, BioTek Instruments Ltd, USA.). Untreated cells were used as medium control and 0.1% Triton X-100 treated cells served as a positive control.

HIV-1 VSV = format: cell-based, HIV-1 pseudotyped with VSV-G
HIV-1 NL4-3 (wt) = format: cell-based
HIV-1 IIIB [4] = assay: Anti-HIV activity in biological fluids, HIV-1 IIIB, luciferase; format: cell-based; settings: TZM-bl luciferase
HIV-1 IIIB and HIV-1 BaL = assay: Stability in seminal plasma and vaginal fluid (residual anti-HIV activity); format: in vitro ADME; settings: 35.7 μM, up to 72 hrs
[5] = Circular dichroism spectroscopy; format: physicochemical; settings: 37°C
Method: CD spectra was performed on a JASCO CD Spectrometer (J-815) at 37 °C using a 5.0-nm bandwidth, 0.1-cm path length, 5-s response time, and a 10-nm/min scanning speed.

[6] = test system: vaginal/endocervical epithelial cells
HIV-1 NL4-3 = assay: GFP expression in CEM-GFP cells; settings: HbAHP-25 prior to infection, day 5 post infection
Method: Supernatants were collected and accumulated p24 levels were determined by sandwich ELISA as per the manufacturer’s protocol (XpressBio, Thurmont, MD, USA). AZT (10nM) was used as positive control for inhibition. For GFP analysis, CEM-GFP cells were observed under fluorescent microscope (Carl Zeiss, Oberkochen, Germany) and photographed using a digital camera (DSC–S75; Sony, Tokyo, Japan). IC50 was defined as the concentration that inhibited 50% of viral activity. The selectivity index (SI) was evaluated as the ratio of CC50 to IC50 (SI = CC50/ IC50).

HIV-1 IIIB and ADA5 = assay: Time-of-addition assay in TZM-bl cells; settings: 71.40 μM
Method: Luciferase activity was measured at 48 hrs post treatment using Luminometer (ELx-800, Bio-Tek Instruments, USA). VRC01 (0.1 μM) antibody was used as a positive control.

[7] = 2.2–71.40 μM coated, gp120 100ng/well

Structure (SMILES): CC(C)C[C@H](NC(=O)[C@H](CC(C)C)NC(=O)[C@H](CCCCN)NC(=O)[C@H](CS)NC(=O)[C@H](CC(N)=O)NC(=O)[C@@H](NC(=O)[C@@H]1CCCN1C(=O)[C@H](CC(=O)O)NC(=O)[C@@H](NC(=O)[C@H](CCCNC(=N)N)NC(=O)[C@H](CC(C)C)NC(=O)[C@H](CCCCN)NC(=O)[C@H](Cc1c[nH]cn1)NC(=O)[C@H](C)N)C(C)C)C(C)C)C(=O)N[C@@H](CO)C(=O)N[C@@H](Cc1c[nH]cn1)C(=O)N[C@@H](CS)C(=O)N[C@@H](CC(C)C)C(=O)N[C@@H](CC(C)C)C(=O)N[C@H](C(=O)N[C@H](C(=O)N[C@@H](CC(C)C)C(=O)N[C@@H](C)C(=O)N[C@@H](CCCNC(=N)N)C(=O)N[C@@H](Cc1c[nH]cn1)C(N)=O)[C@@H](C)O)C(C)C [HbAHP-25]
- Anti-HIV activity (in words) (HIV-1 IIIB [1]; listed as analogue-1b): showed better anti-HIV activity than analogue-1a and analogue of peptide-3
- Anti-HIV activity (in words) (HIV-1 IIIB [1]; listed as peptide analogue-1b): significantly enhanced
- Anti-HIV activity (HIV-1 IIIB [1]; class symbols of Table 1, HIV-1 IIIB in H9 cells, p24 (S2, S3 Fig)): ++
- Binding to recombinant gp120 of HIV-1 IIIB (gp120 of HIV-1 IIIB; [7]): binds to recombinant gp120 of both HIV-1 IIIB and HIV-1 BaL in a dose dependent manner
- Concentration with significant binding to gp120 (gp120 of HIV-1 IIIB; HIV-1 IIIB gp120): above 8.9 μM
- Binding to recombinant gp120 of HIV-1 BaL (gp120 of HIV-1 BaL; [7]): binds to recombinant gp120 of both HIV-1 IIIB and HIV-1 BaL in a dose dependent manner
- Concentration with significant binding to gp120 (gp120 of HIV-1 BaL; HIV-1 BaL gp120): above 8.9 μM
- Rmax (gp120; SPR): 99.7 RU
- Chi2 (gp120; fit to 1:1 Langmuir model): 14.7
- Shift in fluorescent peak in FL-1A channel [2]: 60.10 ± 4.3%
- Shift in fluorescent peak in FL-1A channel (TZM-bl cells): < 3%
- Shift in fluorescent peak in FL-1A channel (HeLa cells): < 3%
- Inhibition of CD4 binding to gp120 (CD4 binding to gp120): significant reduction in the absorbance
- CC50 fold higher than IC50 ([3]; CC50 versus IC50): 5 fold
- Cytotoxicity in words ([3]; MTT): not cytotoxic
- Dose without adverse effect on viability, relative to IC50 ([3]; dose higher than its IC50): 3 fold
- Entry of HIV-1 VSV (HIV-1 VSV): able to enter the cells within one hour even in the presence of HbAHP-25
- Infectivity of HIV-1 VSV (HIV-1 VSV): not affected
- Infectivity of HIV-1 (wt) (HIV-1 NL4-3 (wt)): inhibited
- Change in anti-HIV activity with seminal plasma (HIV-1 IIIB [4]; human seminal plasma): did not observe any significant change
- Change in anti-HIV activity with vaginal fluid (HIV-1 IIIB [4]; human vaginal fluid): did not observe any significant change
- Loss in anti-HIV activity after pre-incubation with seminal plasma (HIV-1 IIIB and HIV-1 BaL; human seminal plasma): did not observe any significant loss
- Loss in anti-HIV activity after pre-incubation with vaginal fluid (HIV-1 IIIB and HIV-1 BaL; human vaginal fluid): did not observe any significant loss
- α-helical content ([5]; 10 μM, PBS pH 7 / sodium acetate pH 4, from ellipticity at 222 nm): about 50%
- Structure at low pH ([5]; pH 4 versus pH 7, 10 μM): no significant change in its structure at low pH
- Effect on lactobacilli (lactobacilli): not inhibitory to lactobacilli
- Disruption of tight junctions [6]: does not cause disruptions of tight junctions
- Induction of inflammation [6]: does not induce any inflammation
- GFP expression (HIV-1 NL4-3): reduced
- Anti-HIV activity, during infection (HIV-1 IIIB and ADA5; During: peptide and virus added simultaneously): still significant
- Anti-HIV activity, post infection (HIV-1 IIIB and ADA5; Post: peptide 6 hrs after infection): significantly lesser than that shown by the first two groups
- Luciferase activity, pre-incubation (HIV-1 IIIB and ADA5; Pre: virus pre-incubated with peptide): significantly lesser luciferase activity
- Inhibition, all steps (HIV-1 IIIB and ADA5; peptide at all three steps): Maximum inhibition
